Results on six compounds are retold here after patent US20160024535A1, “ELECTROCHEMICAL DETOXIFICATION METHOD OF WOOD-BASED HYDROLYSATE FOR PRODUCING BIOCHEMICALS OR BIOFUELS, AND DETOXIFIED WOOD-BASED HYDROLYSATE” (Korea Institute of Science and Technology, priority 2013, published 2016).

For the first series, the system named is Clostridium tyrobutyricum. Briefly: Cellular growth of Clostridium tyrobutyricum (absorbance at 600 nm). Format: cell-based. The note with it: 0.5 g/L in medium, before electrochemical treatment, FIG. 2, read-out: inhibition of the growth of the microorganisms. The source says: (§1) As a butyric acid fermentation medium, a medium containing 20 g of glucose, 5 g of yeast extract, 0.2 g of magnesium sulfate, 0.01 g of manganese sulfate, 0.01 g of ferric sulfate, 0.01 g of sodium chloride, 0.5 g of monopotassium phosphate (KH2PO4), 0.5 g of dipotassium phosphate (K2HPO4) and 2 g of ammonium acetate per 1 L of the medium was used. As a butanol fermentation medium, a medium containing 20 g of glucose, 1 g of yeast extract, 0.2 g of magnesium sulfate, 0.01 g of manganese sulfate, 0.01 g of ferric sulfate, 0.01 g of sodium chloride, 0.5 g of monopotassium phosphate (KH2PO4), 0.5 g of dipotassium phosphate (K2HPO4) and 2 g of ammonium acetate per 1 L of the medium was used. Each medium was gas-substituted with argon gas and sterilized at 121° C. for 15 minutes before the experiment. […]
(§2) After the culturing was completed, the concentrations of phenolic and furanic compounds, sugars and acetic acid were measured for each culture. The concentration was analyzed by liquid chromatography (Agilent model 1200). The phenolic compounds were analyzed using a diode array detector and a Zorbax eclipse XDB-C18 column (150×4.6 mm, 3.5 μm). The sugars and acetic acid were analyzed using a refractive index detector and an Aminex HPX-87H column (300×7.8 mm). The growth of the microorganisms was analyzed by measuring absorbance at 600 nm with a spectrophotometer (UVmini-1240, Shimadzu). […]
For the compound `O=C(O)/C=C/c1ccc(O)cc1` [p-Coumaric acid, p-coumaric acid], the inhibition at 500 µg/mL was about 100%.

For the next series, the system named is Clostridium tyrobutyricum. Put plainly: Production of butyric acid by Clostridium tyrobutyricum. Format: cell-based. Particulars: 0.5 g/L in medium, after electrochemical treatment at optimum voltage, FIG. 3.
From the text: as §1, §2
Consider `O=C(O)/C=C/c1ccc(O)cc1` [p-Coumaric acid, p-coumaric acid], for which the “toxicity reduced by the electrochemical treatment” value is about 100%.

System in a further series: not listed separately
Put plainly: Cyclic voltammetry, oxidation peak voltage.
Settings: not given
Format: physicochemical. Here is the method: First, the optimum voltage for removing each phenolic compound through the electrochemical treatment was determined by cyclic voltammetry. […] In FIG. 1, the abscissa represents voltage (V) and the ordinate represents current (A). […] This means that each of the phenolic compounds is removed by oxidation at the intrinsic voltage.
(§3) A potentiostat (WonA Tech, WMPG 1000) was used for the electrochemical treatment of the medium. Graphite felt was used as an electrode. Specifically, the electrochemical treatment was conducted for by 5 hours at an oxidation peak voltage of each fermentation inhibitor (800 mV for coumaric acid and ferulic acid, 2 V for syringaldehyde and vanillin, 1.8 V for furfural and 5-hydroxyfurfural). Then, the fermentation inhibitors were removed using such methods as gravitational sedimentation, centrifugation, membrane separation, etc. The percentage of the removal rate is wt %.
Consider `COc1cc(/C=C/C(=O)O)ccc1O` [Ferulic acid, ferulic acid], for which the oxidation peak voltage is given as 800 mV.
In turn, `O=Cc1ccco1` [Furfural, furfural] displayed an oxidation peak voltage of 1.8 V.
Same read-out and setting: for `O=Cc1ccc(CO)o1` [HMF, 5-hydroxymethylfurfural] the value was 1.8 V; for `COc1cc(C=O)cc(OC)c1O` [Syringaldehyde, syringaldehyde], 2 V; for `COc1cc(C=O)ccc1O` [Vanillin, vanillin], 2 V.
The same measure, in the same setting: for `O=C(O)/C=C/c1ccc(O)cc1` [p-Coumaric acid, p-coumaric acid] the value was 800 mV.

The next series concerns Clostridium beijerinckii. Briefly: Production of butanol by Clostridium beijerinckii. Format: cell-based. Particulars: 0.5 g/L in medium, after electrochemical treatment, FIG. 5.
From the text: as §1, §2
As for `O=C(O)/C=C/c1ccc(O)cc1` [p-Coumaric acid, p-coumaric acid], the “decrease in butanol production recovered by the electrochemical treatment” value is about 100%.

System in another series: not listed separately
Briefly: Electrochemical treatment of medium, removal rate of phenolic and furanic compounds. The note with it: 1st treatment; 0.5 g/L added to medium; 5 hours at oxidation peak voltage. Format: physicochemical. As for the experimental part:
In order to measure the removal rate of phenolic and furanic compounds, p-coumaric acid, ferulic acid, syringaldehyde and vanillin were selected as phenolic compounds and furfural and 5-hydroxymethylfurfural were selected as furanic compounds. After adding 0.5 g/L of each of the selected 6 inhibitors to a medium, electric current was flown at each optimum oxidation voltage and then removal rate was measured.
as §3
After the culturing was completed, the concentrations of phenolic and furanic compounds, sugars and acetic acid were measured for each culture. The concentration was analyzed by liquid chromatography (Agilent model 1200). The phenolic compounds were analyzed using a diode array detector and a Zorbax eclipse XDB-C18 column (150×4.6 mm, 3.5 μm). The sugars and acetic acid were analyzed using a refractive index detector and an Aminex HPX-87H column (300×7.8 mm). The growth of the microorganisms was analyzed by measuring absorbance at 600 nm with a spectrophotometer (UVmini-1240, Shimadzu). The concentration of butyric acid and butanol was analyzed using a gas chromatography system (Agilent technology 6890N Network GC system) equipped with a flame ionized detector and an HP-INNOWax column (30 m×250 μm×0.25 μm, Agilent Technologies).
`COc1cc(/C=C/C(=O)O)ccc1O` [Ferulic acid, ferulic acid] displayed a Post-treatment concentration of 0.3475 g/L.
Take `O=Cc1ccco1` [Furfural, furfural]: the Post-treatment concentration was 0 g/L.
`O=Cc1ccc(CO)o1` [HMF, 5-hydroxymethylfurfural] yielded a Post-treatment concentration of 0 g/L.
Same read-out and setting: for `COc1cc(C=O)cc(OC)c1O` [Syringaldehyde, syringaldehyde] the value was 0.109 g/L.
In the case of `COc1cc(C=O)ccc1O` [Vanillin, vanillin], the Post-treatment concentration came out at 0.251 g/L.
Consider `O=C(O)/C=C/c1ccc(O)cc1` [p-Coumaric acid, p-coumaric acid], for which the Post-treatment concentration is 0.25 g/L.

Still in this series, the particulars now being: 1st treatment; 0.5 g/L added to medium; 5 hours at oxidation peak voltage; wt %.
As for `COc1cc(/C=C/C(=O)O)ccc1O` [Ferulic acid, ferulic acid], the Removal rate stood at 30.5%.
Still for that read-out and setting: for `O=Cc1ccco1` [Furfural, furfural] the value was 100%; for `O=Cc1ccc(CO)o1` [HMF, 5-hydroxymethylfurfural], 100%.
Regarding `COc1cc(C=O)cc(OC)c1O` [Syringaldehyde, syringaldehyde], the Removal rate stood at 78.2%.
On the same count and under the same terms, for `COc1cc(C=O)ccc1O` [Vanillin, vanillin] the value was 49.8%.
`O=C(O)/C=C/c1ccc(O)cc1` [p-Coumaric acid, p-coumaric acid] gave a Removal rate of 50.0%.

Staying with this series, now noted: 2nd treatment; 0.5 g/L added to medium.
For the compound `COc1cc(/C=C/C(=O)O)ccc1O` [Ferulic acid, ferulic acid], the Post-treatment concentration was found to be 0.1155 g/L.
On to `O=Cc1ccco1` [Furfural, furfural], for which the Post-treatment concentration is recorded as 0 g/L.
The same measure, in the same setting: for `O=Cc1ccc(CO)o1` [HMF, 5-hydroxymethylfurfural] the value was 0 g/L; for `COc1cc(C=O)cc(OC)c1O` [Syringaldehyde, syringaldehyde], 0.0265 g/L.
Turning to `COc1cc(C=O)ccc1O` [Vanillin, vanillin], the Post-treatment concentration came out at 0.089 g/L.
Still for that read-out and setting: for `O=C(O)/C=C/c1ccc(O)cc1` [p-Coumaric acid, p-coumaric acid] the value was 0.11 g/L.

Staying with this series, now noted: 2nd treatment; 0.5 g/L added to medium; wt %.
For the compound `COc1cc(/C=C/C(=O)O)ccc1O` [Ferulic acid, ferulic acid], the Removal rate was found to be 76.9%.
With `O=Cc1ccco1` [Furfural, furfural], the Removal rate is recorded as 100%.
In turn, `O=Cc1ccc(CO)o1` [HMF, 5-hydroxymethylfurfural] showed a Removal rate of 100%.
As for `COc1cc(C=O)cc(OC)c1O` [Syringaldehyde, syringaldehyde], the Removal rate is given as 94.7%.
Same read-out and setting: the figure for `COc1cc(C=O)ccc1O` [Vanillin, vanillin] is 82.2%; for `O=C(O)/C=C/c1ccc(O)cc1` [p-Coumaric acid, p-coumaric acid] it is 78.0%.

The inhibition is how much of the control response was suppressed.
